Assay results reported in ChEMBL document CHEMBL1201862, “PubChem BioAssay data set” (2004).
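Interpolation was linear, between the two tested concentrations surrounding the appropriate level; five concentrations were tested over 48 hours in 96-well plates. Abbreviation: GI50, concentration required for 50% inhibition of growth.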 Activity calls are given as the source filed them. Cut-off read from the data, not from the text of the source: active = GI50 up to about 1.1 µM and inactive = higher.

Tests used:
Test in all cases: inhibition of tumour cell growth, NCI panel, 48 h
[1] = tested on: MDA-MB-231
[2] = tested on: A498
[3] = tested on: NCI-H226
[4] = tested on: RPMI-8226
[5] = tested on: M14
[6] = tested on: MOLT-4
[7] = tested on: OVCAR-3
[8] = tested on: SF-295
[9] = tested on: PC-3
[10] = tested on: T47D
[11] = tested on: NCI-H522
[12] = tested on: Hs-578T
[13] = tested on: IGROV-1
[14] = tested on: SK-MEL-5
[15] = tested on: U-251
[16] = tested on: HCT-116
[17] = tested on: 786-0
[18] = tested on: NCI-H23
[19] = tested on: CCRF-CEM
[20] = tested on: SF-539
[21] = tested on: A549
[22] = tested on: SW-620
[23] = tested on: SK-MEL-2
[24] = tested on: OVCAR-5
[25] = tested on: TK-10
[26] = tested on: HOP-62
[27] = tested on: OVCAR-8
[28] = tested on: SR
[29] = tested on: HCT-15
[30] = tested on: UO-31
[31] = tested on: CAKI-1
[32] = tested on: UACC-257
[33] = tested on: BT-549
[34] = tested on: COLO 205
[35] = tested on: MCF7
[36] = tested on: Malme-3M
[37] = tested on: MDA-MB-435
[38] = tested on: SF-268
[39] = tested on: ACHN
[40] = tested on: MDA-N
[41] = tested on: DU-145
[42] = tested on: SNB-19
[43] = tested on: EKVX
[44] = tested on: HOP-92
[45] = tested on: HT-29
[46] = tested on: HCC 2998
[47] = tested on: UACC-62
[48] = tested on: NCI/ADR-RES
[49] = tested on: LOX IMVI
[50] = tested on: SK-MEL-28
[51] = tested on: RXF 393
[52] = tested on: SNB-75
[53] = tested on: OVCAR-4
[54] = tested on: HL-60
[55] = tested on: SK-OV-3
[56] = tested on: SN12C

## COC(=O)C1(C)CCCC2(C)C3CCC4CC3(C=C4CO)CCC12 (stereo unspecified)
[1]
  GI50: 73.5 µM (inactive)
[2]
  GI50: 87.9 µM (inactive)
[3]
  GI50: 53.2 µM (inactive)
[4]
  GI50: 24.9 µM (inactive)
[5]
  GI50: 93.8 µM (inactive)
[6]
  GI50: 27.8 µM (inactive)
[7]
  GI50: 42.1 µM (inactive)
[8]
  GI50: 60.4 µM (inactive)
[9]
  GI50: 33.1 µM (inactive)
[10]
  GI50: 34.4 µM (inactive)
[11]
  GI50: 34.2 µM (inactive)
[12]
  GI50: > 100 µM (inactive)
[13]
  GI50: > 100 µM (inactive)
[14]
  GI50: 37.2 µM (inactive)
[15]
  GI50: 57.4 µM (inactive)
[16]
  GI50: 30.6 µM (inactive)
[17]
  GI50: 43.4 µM (inactive)
[18]
  GI50: 38.1 µM (inactive)
[19]
  GI50: 41.7 µM (inactive)
[20]
  GI50: 32.1 µM (inactive)
[21]
  GI50: > 100 µM (inactive)
[22]
  GI50: 69.2 µM (inactive)
[23]
  GI50: 82.4 µM (inactive)
[24]
  GI50: > 100 µM (inactive)
[25]
  GI50: 91.6 µM (inactive)
[26]
  GI50: 75 µM (inactive)
[27]
  GI50: 36.9 µM (inactive)
[28]
  GI50: 27.6 µM (inactive)
[29]
  GI50: 17.4 µM
[30]
  GI50: 32.9 µM (inactive)
[31]
  GI50: 43.8 µM (inactive)
[32]
  GI50: 41.9 µM (inactive)
[33]
  GI50: 49.3 µM (inactive)
[34]
  GI50: 74.8 µM (inactive)
[35]
  GI50: 22.8 µM (inactive)
[36]
  GI50: 27 µM (inactive)
[37]
  GI50: 83.2 µM (inactive)
[38]
  GI50: 37.8 µM (inactive)
[39]
  GI50: 41 µM (inactive)
[40]
  GI50: 46.7 µM (inactive)
[41]
  GI50: > 100 µM (inactive)
[42]
  GI50: 28.2 µM (inactive)
[43]
  GI50: 41.2 µM (inactive)
[44]
  GI50: 55.1 µM (inactive)
[45]
  GI50: 16.2 µM (inactive)
[46]
  GI50: 39.6 µM (inactive)
[47]
  GI50: > 100 µM (inactive)
[48]
  GI50: 24.4 µM (inactive)
[49]
  GI50: 20.7 µM (inactive)
[50]
  GI50: 66.7 µM (inactive)
[51]
  GI50: 56.4 µM (inactive)
[52]
  GI50: 37.2 µM (inactive)
[53]
  GI50: 68.2 µM (inactive)
[54]
  GI50: 20.6 µM (inactive)
[55]
  GI50: > 100 µM (inactive)
[56]
  GI50: 20.3 µM (inactive)
